From patent US20240261410A1, “SODIUM DE[…] ACID AS […]” (priority 2023, published 2024)

What was measured:
[1] = Solubilization in water with sodium deoxycholate; type: physicochemical; conditions: at 50° C., same conditions for tunicamycin and TunR1
Experimental: (§1) The modified tunicamycin TunR2 solid powder (8 mg, […]) and DOC solid powder (4.4 mg, […]) were vortexed together in an equimolar ratio, and was prepared in water for injection (3 mL) and stirred until dissolved. If needed, the pH was adjusted to 5.8 by addition of 10% acetic acid. The TunR2 was initially insoluble under these conditions, but began to dissolve after 5 minutes at 50° C. (in the range of about 50° C. to about 70° C.) and was completely soluble after 10 minutes at this temperature (FIG. 6A to FIG. 6C). […] The native tunicamycin solution became somewhat hazy after this time, but was readily clarified on gentle re-warming.
(§2) The present work undertaken to develop a water-soluble TunR2 formulation solubilized by sodium deoxycholate to reduce the solvent toxicity and to improve the physiochemical properties. Solutions were prepared either by mixing together TunR2 and DOC powders in equimolar portions and adding water, or by preparing a DOC aqueous stock solution and adding this directly to the TunR2. At 10 mg/mL, the TunR2 was initially insoluble under these conditions, but began to dissolve after 5 minutes at 50° C. and was completely soluble after 10 minutes at this temperature. […] The native tunicamycin solution became somewhat hazy after this time, but was readily clarify on gentle re-warming.

[2] = Stability of the aqueous DOC solutions on standing at room temperature; type: physicochemical; conditions: 18 hours at room temperature
Experimental: as §1, §2

[3] = tested on: Mycobacterium smegmatis mc^2 155; assay: MIC and MBIC (growth and biofilm formation), two-fold broth dilution in TYG; type: cell-based
Experimental: MICs and MBICs were evaluated using two-fold broth dilution series in 96-well round-bottom microtiter plates. […]
Two-fold dilutions were then prepared as follows. […] The box was placed into the 37° C. incubator and microbial growth and biofilm formation were assessed visually on a daily basis for six days. […]

[4] = tested on: Escherichia coli ATCC 9637; assay: MIC, two-fold broth dilution in TYG, 96-well microtiter plates; type: cell-based; conditions: TunR2 in DMSO, TunR2-DOC and DOC in water, table prints no unit (dilution series in μg/mL)
Experimental: (§3) Seed cultures of Bacillus subtilis ATCC 6633, Escherichia coli ATCC 9637, Mycobacterium smegmatis mc^2 155, and Saccharomyces cerevisiae NRRL Y-139 were started from freezer stocks and grown in tryptone-yeast extract-glucose (TYG) broth for 24 hours at 27° C. Microbial dilutions were prepared as follows. Sterile PBS (phosphate buffer saline, 1 mL) was added to a glass tube using a disposable 10 mL pipet. Using a sterile loop microbial material was transferred from an agar plate, and the turbidity was measured and adjusted to 1.0 Macfarlane units. The inoculum dilution was then prepared. To a sterile 50 mL blue-capped centrifuge tube, 50 mL TYG stock media were added using a 25 mL disposable pipet. To this tube was then added 1 mL of the microbial dilution, and the contents were mixed by vortexing (this will give a 1:50 v/v dilution). This 1:50 v/v dilution inoculum was dispensed using a multichannel pipet, adding 100 μL to each well of a 96-well round-bottom microtiter plate.
(§4) MICs and MBICs were evaluated using two-fold broth dilution series in 96-well round-bottom microtiter plates. Diluted solutions were prepared by adding 20 μl of the 1 mg/mL stock of the TunR2 to 1.980 mL of TYG in a 15 mL blue-capped centrifuge tube for a total of 2 mL volume at 10 μg/mL. […] A blank of 20 μl dimethyl sulfoxide (DMSO) up to 2 mL TYG was also included. The microtiter plates were then set up as follows. To wells 1, 2, and 3 of the first row (A row) of the microtiter plate 200 μl of TYG media control were added. To wells 4, 5, and 6 in row A of the plate 200 μl TYG+TunR2 (10 μg/mL) were added. To wells 7, 8, and 9 in row A of the plate, 200 μl TYG+DOC (5 μg/mL) were added. And to wells 10, 11, and 12 in row A of the plate, 200 μl TYG+TunR2 (10 μg/mL)+DOC (5 μg/mL) were added. To the remaining wells of the microtiter plate 100 μl of the sterile TYG liquid media were added.
(§5) Two-fold dilutions were then prepared as follows. […] The box was placed into the 37° C. incubator and microbial growth and biofilm formation were assessed visually on a daily basis for six days.

[5] = tested on: Bacillus subtilis ATCC 6633; assay: as above; type: cell-based; conditions: TunR2 in DMSO, TunR2-DOC and DOC in water, table prints no unit (dilution series in μg/mL)
Experimental: as §3, §4, §5

[6] = tested on: Saccharomyces cerevisiae NRRL Y-139; assay: as above; type: cell-based; conditions: TunR2 in DMSO, TunR2-DOC and DOC in water, table prints no unit (dilution series in μg/mL)
Experimental: as §3, §4, §5

[7] = DOSY-NMR, 10 mM in D2O, 600 MHz, not a partition coefficient
Experimental: 1H and 2D NMR (COSY, HSQC, and HMBC) spectra were recorded on a Bruker Avance III 500 MHz spectrometer operating at 125 MHz. The spectra were obtained in methanol-d4 or DMSO-d6 using residual solvent signals as internal standards. Diffusion orientated (DOSY) NMR spectra were obtained on a JEOL 600 mHz instrument using DOSY pulse sequences provide by the manufacturer.
The diffusion constants (log D) of residual deuterated water (HDO) and methanol (MeOD) are also indicated on the graphs. The corresponding ^1H-NMR spectra are shown above the graphs. All spectra were acquired at 600 MHz.

tunicamycin
time to complete dissolution in water with DOC ([1]; 8 mg TunR2 + 4.4 mg DOC in 3 mL water for injection): ≤ 5 min
time to complete dissolution in water with DOC ([1]; at 10 mg/mL, equimolar DOC): ≤ 5 min
state of aqueous DOC solution after cooling and standing [2]: somewhat hazy

5β-cholan-24-oic acid-3α, 12α-diol sodium salt [DOC]
effect of DOC control in the MIC assays ([3]; DOC at the same concentration as the TunR2): no effect
Minimal Inhibitory Concentration ([3]; first figure of cell MIC/MBIC, TunR2 in DMSO, TunR2-DOC and DOC in water, unit not given): >2.5
Minimal Inhibitory Concentration [4]: >2.5
Minimal Inhibitory Concentration [5]: >2.5
Minimal Inhibitory Concentration [6]: >2.5
diffusion constant (log D) [7]: −9.66
